Counter-ions that a name gives are not always drawn. Like-named read-outs stand apart in the source and are kept apart here. Some results are limits rather than exact numbers.

The subject of experiment [1] is RS4; 11 leukaemia cell line. Briefly: In vitro cytotoxicity, Microculture Tetrazolium Assay (MTT). Conditions: 11 cells exposed for 48 hours. It counts as cell-based. Here is the method:
The cytotoxicity studies were carried out on the RS4; 11 leukaemia cell line and on H146 small Cell Lung Carcinoma cell line. The cells are distributed onto microplates and exposed to the test compounds for 48 hours. The cell viability is then quantified by a colorimetric assay, the Microculture Tetrazolium Assay (Cancer Res., 1987, 47, 939-942).

The target of a further experiment is Bcl-2 protein (histag-Bcl-2, UniProtKB P10415) (Homo sapiens (Human), UniProt P10415). Put plainly: Inhibition of Bcl-2 by the fluorescence polarisation technique. In kind it is binding. From the text: For partial inhibitors, the percentage fluorescence polarisation inhibition for a given concentration of the test compound is indicated.
Setting [2] is: fluorescence polarisation test, incubation for 2 hours, read-out: IC50 (nM) Bcl-2 FP.

Bcl-2 protein, sequence (P10415 whole entry): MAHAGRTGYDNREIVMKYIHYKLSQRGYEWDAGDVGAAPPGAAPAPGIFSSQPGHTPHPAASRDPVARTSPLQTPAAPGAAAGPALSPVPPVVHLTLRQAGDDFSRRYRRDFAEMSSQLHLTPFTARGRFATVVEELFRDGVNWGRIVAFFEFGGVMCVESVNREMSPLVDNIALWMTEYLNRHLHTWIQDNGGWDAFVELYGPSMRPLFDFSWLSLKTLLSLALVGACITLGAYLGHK

As to `CCS(=O)(=O)N1Cc2cc(C(=O)N3Cc4ccccc4C[C@H]3CN3CCOCC3)c(-c3cc(C(=O)N(C)c4ccc(O)cc4)c4n3CCCC4)cc2C1` [Example 18, 3-[2-(Ethanesulfonyl)-6-[(3S)-3-(morpholin-4-ylmethyl)-1,2,3,4-tetrahydroisoquinoline-2-carbonyl]-2,3-dihydro-1H-isoindol-5-yl]-N-(4-hydroxyphenyl)-N-methyl-5,6,7,8-tetrahydroindolizine-1-carboxamide hydrochloride], the IC50 – broadly, the concentration at which inhibition is half-maximal – came to 1290 nM in experiment [1] (Homo sapiens) and 38 nM on Bcl-2 protein (setting [2]).

Regarding `Cc1c(C(=O)N(C)c2ccc(O)cc2)cc(-c2cc3c(cc2C(=O)N2Cc4ccccc4C[C@H]2CN2CCOCC2)CN(C(=O)Oc2cnc4[nH]ccc4c2)CC3)n1C` [Example 579, 1H-Pyrrolo[2,3-b]pyridin-5-yl 6-{4-[(4-hydroxyphenyl)(methyl)carbamoyl]-1,5-dimethyl-1H-pyrrol-2-yl}-7-[(3S)-3-(morpholin-4-ylmethyl)-1,2,3,4-tetrahydroisoquinoline-2-carbonyl]-1,2,3,4-tetrahydroisoquinoline-2-carboxylate], the IC50 in experiment [1] (Homo sapiens) was found to be 17 nM; on Bcl-2 protein, 4.4 nM.

Take `Cc1ccc(OC(=O)N2CCc3cc(-c4cc(C(=O)N(C)c5ccccc5)c(C)n4C)c(C(=O)N4Cc5ccccc5C[C@H]4C)cc3C2)cc1` [Example 785, 4-Methylphenyl 6-{1,5-dimethyl-4-[methyl(phenyl)carbamoyl]-1H-pyrrol-2-yl}-7-[(3R)-3-methyl-1,2,3,4-tetrahydroisoquinoline-2-carbonyl]-1,2,3,4-tetrahydroisoquinoline-2-carboxylate]: the values for the IC50 (in experiment [1] (Homo sapiens); at Bcl-2 protein (setting [2])) were 7.8 nM and 3.3 nM, respectively.

`C[C@@H]1Cc2ccccc2CN1C(=O)c1cc2c(cc1-c1cc(C(=O)N(C)c3ccc(O)cc3)c3n1CCCC3)CCN(C(=O)CCc1ccccc1)C2` [Example 37, N-(4-Hydroxyphenyl)-N-methyl-3-{7-[(3R)-3-methyl-1,2,3,4-tetrahydroisoquinoline-2-carbonyl]-2-(3-phenylpropanoyl)-1,2,3,4-tetrahydroisoquinolin-6-yl}-5,6,7,8-tetrahydroindolizine-1-carboxamide]: the half-inhibitory concentration (IC50) in experiment [1] (Homo sapiens) amounted to 18 nM; at Bcl-2 protein (setting [2]), 4.9 nM.

On to `C#Cc1ccc(OC(=O)N2CCc3cc(-c4cc(C(=O)N(C)c5ccc(O)cc5)c(C)n4C)c(C(=O)N4Cc5ccccc5C[C@H]4CN4CCOCC4)cc3C2)cc1` [Example 564, 4-Ethynylphenyl 6-{4-[(4-hydroxyphenyl)(methyl)carbamoyl]-1,5-dimethyl-1H-pyrrol-2-yl}-7-[(3S)-3-(morpholin-4-ylmethyl)-1,2,3,4-tetrahydroisoquinoline-2-carbonyl]-1,2,3,4-tetrahydroisoquinoline-2-carboxylate], for which the figures for the concentration for half-maximal inhibition (IC50) (in experiment [1] (Homo sapiens); on Bcl-2 protein (setting [2])) were 3.3 nM and 4.5 nM, respectively.

As to `CNC(=O)N1Cc2cc(C(=O)N3Cc4ccccc4C[C@H]3C)c(-c3cc(C(=O)N(C)c4ccc(O)cc4)c(C)n3C)cc2C1` [Example 170, 5-{4-[(4-Hydroxyphenyl)(methyl)carbamoyl]-1,5-dimethyl-1H-pyrrol-2-yl}-N-methyl-6-[(3R)-3-methyl-1,2,3,4-tetrahydroisoquinoline-2-carbonyl]-2,3-dihydro-1H-isoindole-2-carboxamide], the IC50 in experiment [1] (Homo sapiens) worked out at 491 nM; at Bcl-2 protein (setting [2]), 12 nM.

Turning to `C[C@@H]1Cc2ccccc2CN1C(=O)c1cc2c(cc1-c1cc(C(=O)N(C)c3ccc(O)cc3)c3n1CCCC3)CN(C(=O)OCc1ccccc1)C2` [Example 62, Benzyl 5-{1-[(4-hydroxyphenyl)(methyl)carbamoyl]-5,6,7,8-tetrahydroindolizin-3-yl}-6-[(3R)-3-methyl-1,2,3,4-tetrahydroisoquinoline-2-carbonyl]-2,3-dihydro-1H-isoindole-2-carboxylate], the IC50 in experiment [1] (Homo sapiens) came to 113 nM; on Bcl-2 protein (setting [2]) it was 20 nM.

With `Cc1c(C(=O)N(C)c2ccc(O)cc2)cc(-c2cc3c(cc2C(=O)N2Cc4ccccc4C[C@H]2C)CN(C(=O)CC2CCCCC2)CC3)n1C` [Example 795, 5-[2-(2-Cyclohexylacetyl)-7-[(3R)-3-methyl-1,2,3,4-tetrahydroisoquinoline-2-carbonyl]-1,2,3,4-tetrahydroisoquinolin-6-yl]-N-(4-hydroxyphenyl)-N,1,2-trimethyl-1H-pyrrole-3-carboxamide], the IC50 in experiment [1] (Homo sapiens) was found to be 32 nM; on Bcl-2 protein (setting [2]), 5.3 nM.

Regarding `C[C@@H]1Cc2ccccc2CN1C(=O)c1cc2c(cc1-c1cc(C(=O)N(C)c3ccc(O)cc3)c3n1CCCC3)CCN(C(=O)Cc1ccc(CN3CCN(C)CC3)cc1)C2` [Example 113, N-(4-Hydroxyphenyl)-N-methyl-3-{7-[(3R)-3-methyl-1,2,3,4-tetrahydroisoquinoline-2-carbonyl]-2-(2-{4-[(4-methylpiperazin-1-yl)methyl]phenyl}acetyl)-1,2,3,4-tetrahydroisoquinolin-6-yl}-5,6,7,8-tetrahydroindolizine-1-carboxamide], the IC50 is 25 nM in experiment [1] (Homo sapiens) and 3.6 nM at Bcl-2 protein (setting [2]).

In the case of `C[C@@H]1Cc2ccccc2CN1C(=O)c1cc2c(cc1-c1cc(C(=O)N(c3ccccc3)c3ccc(O)cc3)c3n1CCCC3)CN(C(=O)Oc1ccccc1)C2` [Example 133, Phenyl 5-{1-[(4-hydroxyphenyl)(phenyl)carbamoyl]-5,6,7,8-tetrahydroindolizin-3-yl}-6-[(3R)-3-methyl-1,2,3,4-tetrahydroisoquinoline-2-carbonyl]-2,3-dihydro-1H-isoindole-2-carboxylate], the results for the IC50 (in experiment [1] (Homo sapiens); on Bcl-2 protein (setting [2])) were 8.2 nM and 7 nM, respectively.

`CCCCN(CCCC)C(=O)c1cc(-c2cc3c(cc2C(=O)N2Cc4ccccc4C[C@H]2CN2CCOCC2)CN(C(=O)Cc2ccccc2)CC3)n(C)c1C` [Example 165, N,N-Dibutyl-1,2-dimethyl-5-{7-[(3S)-3-(morpholin-4-ylmethyl)-1,2,3,4-tetrahydroisoquinoline-2-carbonyl]-2-(2-phenylacetyl)-1,2,3,4-tetrahydroisoquinolin-6-yl}-1H-pyrrole-3-carboxamide]: the values for the IC50 (in experiment [1] (Homo sapiens); on Bcl-2 protein (setting [2])) were over 150 nM and 18 nM, respectively.

In the case of `Cc1c(C(=O)N(C)c2ccc(O)cc2)cc(-c2cc3c(cc2C(=O)N2Cc4ccccc4C[C@H]2C)CN(C(=O)NCc2ccccc2)C3)n1C` [Example 111, N-Benzyl-5-{4-[(4-hydroxyphenyl)(methyl)carbamoyl]-1,5-dimethyl-1H-pyrrol-2-yl}-6-[(3R)-3-methyl-1,2,3,4-tetrahydroisoquinoline-2-carbonyl]-2,3-dihydro-1H-isoindole-2-carboxamide], the figures for the half-maximal inhibitory concentration (IC50) (in experiment [1] (Homo sapiens); at Bcl-2 protein (setting [2])) were 64 nM and 8.4 nM, respectively.

With `Cc1c(C(=O)N(C)c2ccc(O)cc2)cc(-c2cc3c(cc2C(=O)N2Cc4ccccc4C[C@H]2CN2CCOCC2)CN(C(=O)NC2CCCCC2)CC3)n1C` [Example 793, N-Cyclohexyl-6-{4-[(4-hydroxyphenyl)(methyl)carbamoyl]-1,5-dimethyl-1H-pyrrol-2-yl}-7-[(3S)-3-(morpholin-4-ylmethyl)-1,2,3,4-tetrahydroisoquinoline-2-carbonyl]-1,2,3,4-tetrahydroisoquinoline-2-carboxamide], the IC50 in experiment [1] (Homo sapiens) is 92 nM; at Bcl-2 protein (setting [2]), 4.4 nM.

With `Cc1c(C(=O)N(C)c2ccccc2)cc(-c2cc3c(cc2C(=O)N2Cc4ccccc4C[C@H]2CN2CCOCC2)CN(C(=O)Cc2ccccc2)CC3)n1C` [Example 117, N,1,2-trimethyl-5-{7-[(3S)-3-(morpholin-4-ylmethyl)-1,2,3,4-tetrahydroisoquinoline-2-carbonyl]-2-(2-phenylacetyl)-1,2,3,4-tetrahydroisoquinolin-6-yl}-N-phenyl-1H-pyrrole-3-carboxamide], the IC50 in experiment [1] (Homo sapiens) amounted to 39 nM; at Bcl-2 protein (setting [2]), 2.5 nM.

As to `CN(C(=O)c1cc(-c2cc3c(cc2C(=O)N2Cc4ccccc4C[C@H]2CN2CCOCC2)CN(S(=O)(=O)c2cccnc2)C3)n2c1CCCC2)c1ccc(O)cc1` [Example 22, N-(4-Hydroxyphenyl)-N-methyl-3-{6-[(3S)-3-(morpholin-4-ylmethyl)-1,2,3,4-tetrahydroisoquinoline-2-carbonyl]-2-(pyridine-3-sulfonyl)-2,3-dihydro-1H-isoindol-5-yl}-5,6,7,8-tetrahydroindolizine-1-carboxamide hydrochloride], the IC50 is over 150 nM in experiment [1] (Homo sapiens) and 70 nM on Bcl-2 protein (setting [2]).

Regarding `Cc1c(C(=O)N(C)c2ccc(O)cc2)cc(-c2cc3c(cc2C(=O)N2Cc4ccccc4C[C@H]2C)CN(C(=O)OC2CCC(N)CC2)CC3)n1C` (stereo partly drawn) [Example 801, (1r,4r)-4-Aminocyclohexyl 6-{4-[(4-hydroxyphenyl)(methyl)carbamoyl]-1,5-dimethyl-1H-pyrrol-2-yl}-7-[(3R)-3-methyl-1,2,3,4-tetrahydroisoquinoline-2-carbonyl]-1,2,3,4-tetrahydroisoquinoline-2-carboxylate hydrochloride], the IC50 is over 150 nM in experiment [1] and 2.7 nM on Bcl-2 protein (setting [2]).

Consider `Cc1c(C(=O)N(C)c2ccc(O)cc2)cc(-c2cc3c(cc2C(=O)N2Cc4ccccc4C[C@H]2CN(C)C)CN(C(=O)Cc2ccccc2)CC3)n1C` [Example 777, 5-{7-[(3S)-3-[(Dimethylamino)methyl]-1,2,3,4-tetrahydroisoquinoline-2-carbonyl]-2-(2-phenylacetyl)-1,2,3,4-tetrahydroisoquinolin-6-yl}-N-(4-hydroxyphenyl)-N,1,2-trimethyl-1H-pyrrole-3-carboxamide], for which the half-maximal inhibitory concentration (IC50) was 30 nM in experiment [1] (Homo sapiens) and 4.1 nM on Bcl-2 protein (setting [2]).

As for `C[C@@H]1Cc2ccccc2CN1C(=O)c1cc2c(cc1-c1cc(C(=O)N(c3ccccc3)c3ccc(O)cc3)c3n1CCCC3)CN(C(=O)OC(C)(C)C)C2` [Example 43, tert-Butyl 5-{1-[(4-hydroxyphenyl)(phenyl)carbamoyl]-5,6,7,8-tetrahydroindolizin-3-yl}-6-[(3R)-3-methyl-1,2,3,4-tetrahydroisoquinoline-2-carbonyl]-2,3-dihydro-1H-isoindole-2-carboxylate], the half-inhibitory concentration (IC50) in experiment [1] (Homo sapiens) is 502 nM; at Bcl-2 protein (setting [2]), 77 nM.

Values taken from patent publication US9809574B2, “Isoindoline or isoquinoline compounds, a process for their preparation and pharmaceutical compositions containing them” (LES LABORATOIRES SERVIER, priority 2013, dated 2017).
